System: Acinetobacter baumannii strains
Assay: Antibiotic susceptibility test (CLSI disk diffusion test method, read per CLSI 2016)
Type: cell-based
Description: (§1) Strain identification was performed using a kit such as AT 32 GN system (bioMérieux, Marcy l'Etoile, France). […] In Table 2 below, S, I, and R are the results obtained by evaluating susceptibility to the antibacterial agents, in which ‘S’ means susceptible, ‘I’ means intermediate, and ‘R’ means resistant.
as §1, with “as ATB” for “as AT”, “system (bioMédrieux,” for “system (bioMérieux,”, “Table 6” for “Table 2”
as §1, with “as ATB” for “as AT”, “Table 10” for “Table 2”, “susceptible, T” for “susceptible, ‘I’”

C[C@H]1COc2c(N3CCN(C)CC3)c(F)cc3c(=O)c(C(=O)O)cn1c23 [Levofloxacin, levofloxacin]
antibiotic susceptibility class (host strain YMC14/01/C29): R
antibiotic susceptibility class (host strain YMC14/01/IP122): I
antibiotic susceptibility class (host strain YMC14/01/L8): R
antibiotic susceptibility class (host strain YMC14/01/P31): R
antibiotic susceptibility class (host strain YMC14/01/P117): I
antibiotic susceptibility class (host strain YMC14/01/P224): R
antibiotic susceptibility class (host strain YMC14/01/P727): R
antibiotic susceptibility class (host strain YMC14/01/P728): R
antibiotic susceptibility class (host strain YMC14/01/R130): R
antibiotic susceptibility class (host strain YMC14/01/R160): R
antibiotic susceptibility class (host strain YMC14/01/R198): R
antibiotic susceptibility class (host strain YMC14/01/R257): R
antibiotic susceptibility class (host strain YMC14/01/R270): R
antibiotic susceptibility class (host strain YMC14/01/R324): R
antibiotic susceptibility class (host strain YMC14/01/R443): R
antibiotic susceptibility class (host strain YMC14/01/R451): R
antibiotic susceptibility class (host strain YMC14/01/R560): R
antibiotic susceptibility class (host strain YMC14/01/R617): R
antibiotic susceptibility class (host strain YMC14/01/R671): R
antibiotic susceptibility class (host strain YMC14/01/R732): R
antibiotic susceptibility class (host strain YMC14/01/R767): R
antibiotic susceptibility class (host strain YMC14/01/R904): R
antibiotic susceptibility class (host strain YMC14/01/R905): R
antibiotic susceptibility class (host strain YMC14/01/R921): R
antibiotic susceptibility class (host strain YMC14/01/R941): R
antibiotic susceptibility class (host strain YMC14/01/R958): R
antibiotic susceptibility class (host strain YMC14/01/R1006): R
antibiotic susceptibility class (host strain YMC14/01/R1199): R
antibiotic susceptibility class (host strain YMC14/01/R1659): R
antibiotic susceptibility class (host strain YMC14/01/R1722): R
antibiotic susceptibility class (host strain YMC14/01/R1752): R
antibiotic susceptibility class (host strain YMC14/01/R2429): R
antibiotic susceptibility class (host strain YMC14/01/R2572): R
antibiotic susceptibility class (host strain YMC14/01/R2855): R
antibiotic susceptibility class (host strain YMC14/01/R2945): R
antibiotic susceptibility class (host strain YMC14/01/R3007): R
antibiotic susceptibility class (host strain YMC14/01/R3129): R
antibiotic susceptibility class (host strain YMC14/01/R3317): R
antibiotic susceptibility class (host strain YMC14/01/R3474): I
antibiotic susceptibility class (host strain YMC14/01/R3574): R
antibiotic susceptibility class (host strain YMC14/01/U313): R
antibiotic susceptibility class (host strain YMC14/01/U318): R
antibiotic susceptibility class (host strain YMC14/02/L18): R
antibiotic susceptibility class (host strain YMC14/02/P47): R
antibiotic susceptibility class (host strain YMC14/02/R1860): R
antibiotic susceptibility class (host strain YMC14/02/R2417): R
antibiotic susceptibility class (host strain YMC14/02/R2599): R
antibiotic susceptibility class (host strain YMC14/02/R2668): R
antibiotic susceptibility class (host strain YMC14/02/R2758): R
antibiotic susceptibility class (host strain YMC14/02/R2781): R
antibiotic susceptibility class (host strain YMC14/02/R3106): R
antibiotic susceptibility class (host strain YMC14/02/R3419): R
antibiotic susceptibility class (host strain YMC14/02/U1607): R
antibiotic susceptibility class (host strain YMC14/03/L9): R
antibiotic susceptibility class (host strain YMC14/03/P471): R
antibiotic susceptibility class (host strain YMC14/03/R122): R
antibiotic susceptibility class (host strain YMC14/03/R217): R
antibiotic susceptibility class (host strain YMC14/03/R380): R
antibiotic susceptibility class (host strain YMC14/03/R618): R
antibiotic susceptibility class (host strain YMC14/03/R2144): R
antibiotic susceptibility class (host strain YMC14/03/U4616): R
antibiotic susceptibility class (host strain YMC14/04/R1078): R
antibiotic susceptibility class (host strain YMC14/04/R1080): R
antibiotic susceptibility S/I/R (host strain YMC14/06/R2359): R
susceptibility category (S/I/R) (host strain YMC14/06/R2359): R
antibiotic susceptibility S/I/R (host strain YMC14/08/R1169): R
susceptibility category (S/I/R) (host strain YMC14/08/R1169): R
antibiotic susceptibility S/I/R (host strain YMC14/08/T90): R
susceptibility category (S/I/R) (host strain YMC14/08/T90): R
antibiotic susceptibility S/I/R (host strain YMC15/02/R436): R
susceptibility category (S/I/R) (host strain YMC15/02/R436): R
antibiotic susceptibility S/I/R (host strain YMC15/02/T28): R
susceptibility category (S/I/R) (host strain YMC15/02/T28): R
antibiotic susceptibility S/I/R (host strain YMC15/03/R1604): R
susceptibility category (S/I/R) (host strain YMC15/03/R1604): R
antibiotic susceptibility S/I/R (host strain YMC15/09/R1869): R
susceptibility category (S/I/R) (host strain YMC15/09/R1869): R
antibiotic susceptibility S/I/R (host strain YMC16/01/P11): R
susceptibility category (S/I/R) (host strain YMC16/01/P11): R
antibiotic susceptibility S/I/R (host strain YMC16/01/R123): R
susceptibility category (S/I/R) (host strain YMC16/01/R123): R
antibiotic susceptibility S/I/R (host strain YMC16/01/R198): R
susceptibility category (S/I/R) (host strain YMC16/01/R198): R
antibiotic susceptibility S/I/R (host strain YMC16/01/R353): R
susceptibility category (S/I/R) (host strain YMC16/01/R353): R
antibiotic susceptibility S/I/R (host strain YMC16/01/R380): R
susceptibility category (S/I/R) (host strain YMC16/01/R380): R
antibiotic susceptibility S/I/R (host strain YMC16/01/R397): R
susceptibility category (S/I/R) (host strain YMC16/01/R397): R
antibiotic susceptibility S/I/R (host strain YMC16/01/R405): R
susceptibility category (S/I/R) (host strain YMC16/01/R405): R
antibiotic susceptibility S/I/R (host strain YMC16/03/R4461): R
susceptibility category (S/I/R) (host strain YMC16/03/R4461): R
antibiotic susceptibility S/I/R (host strain YMC16/05/R2210): R
susceptibility category (S/I/R) (host strain YMC16/05/R2210): R
antibiotic susceptibility S/I/R (host strain YMC16/07/R2512): R
susceptibility category (S/I/R) (host strain YMC16/07/R2512): R
antibiotic susceptibility S/I/R (host strain YMC16/09/R2471): R
susceptibility category (S/I/R) (host strain YMC16/09/R2471): R
antibiotic susceptibility S/I/R (host strain YMC16/10/R2537): R
susceptibility category (S/I/R) (host strain YMC16/10/R2537): R
antibiotic susceptibility S/I/R (host strain YMC16/12/B11422): R
susceptibility category (S/I/R) (host strain YMC16/12/B11422): R
antibiotic susceptibility S/I/R (host strain YMC16/12/B11449): R
susceptibility category (S/I/R) (host strain YMC16/12/B11449): R
antibiotic susceptibility S/I/R (host strain YMC16/12/B13325): R
susceptibility category (S/I/R) (host strain YMC16/12/B13325): R
antibiotic susceptibility S/I/R (host strain YMC16/12/P503): R
susceptibility category (S/I/R) (host strain YMC16/12/P503): R
antibiotic susceptibility S/I/R (host strain YMC16/12/R4637): R
susceptibility category (S/I/R) (host strain YMC16/12/R4637): R
antibiotic susceptibility S/I/R (host strain YMC17/01/B8053): R
susceptibility category (S/I/R) (host strain YMC17/01/B8053): R
antibiotic susceptibility S/I/R (host strain YMC17/01/B10087): R
susceptibility category (S/I/R) (host strain YMC17/01/B10087): R
antibiotic susceptibility S/I/R (host strain YMC17/01/B12075): R
susceptibility category (S/I/R) (host strain YMC17/01/B12075): R
antibiotic susceptibility S/I/R (host strain YMC17/01/B13454): R
susceptibility category (S/I/R) (host strain YMC17/01/B13454): R
antibiotic susceptibility S/I/R (host strain YMC17/01/P518): R
susceptibility category (S/I/R) (host strain YMC17/01/P518): R
antibiotic susceptibility S/I/R (host strain YMC17/01/R2812): R
susceptibility category (S/I/R) (host strain YMC17/01/R2812): R
antibiotic susceptibility S/I/R (host strain YMC17/02/B14): R
susceptibility category (S/I/R) (host strain YMC17/02/B14): R
antibiotic susceptibility S/I/R (host strain YMC17/02/B87): R
susceptibility category (S/I/R) (host strain YMC17/02/B87): R
antibiotic susceptibility S/I/R (host strain YMC17/02/B721): R
susceptibility category (S/I/R) (host strain YMC17/02/B721): R
antibiotic susceptibility S/I/R (host strain YMC17/02/B4039): R
susceptibility category (S/I/R) (host strain YMC17/02/B4039): R
antibiotic susceptibility S/I/R (host strain YMC17/02/B4520): R
susceptibility category (S/I/R) (host strain YMC17/02/B4520): R
antibiotic susceptibility S/I/R (host strain YMC17/02/B4864): S
susceptibility category (S/I/R) (host strain YMC17/02/B4864): S
antibiotic susceptibility S/I/R (host strain YMC17/02/B8414): R
susceptibility category (S/I/R) (host strain YMC17/02/B8414): R
antibiotic susceptibility S/I/R (host strain YMC17/02/P523): R
susceptibility category (S/I/R) (host strain YMC17/02/P523): R
antibiotic susceptibility S/I/R (host strain YMC17/02/R541): R
susceptibility category (S/I/R) (host strain YMC17/02/R541): R
antibiotic susceptibility S/I/R (host strain YMC17/02/R2392): R
susceptibility category (S/I/R) (host strain YMC17/02/R2392): R
antibiotic susceptibility S/I/R (host strain YMC17/03/B4730): R
susceptibility category (S/I/R) (host strain YMC17/03/B4730): R
antibiotic susceptibility S/I/R (host strain YMC17/03/B5000): R
susceptibility category (S/I/R) (host strain YMC17/03/B5000): R
antibiotic susceptibility S/I/R (host strain YMC17/03/P971): R
susceptibility category (S/I/R) (host strain YMC17/03/P971): R
antibiotic susceptibility S/I/R (host strain YMC17/03/R348): R
susceptibility category (S/I/R) (host strain YMC17/03/R348): R
antibiotic susceptibility S/I/R (host strain YMC17/03/R585): R
susceptibility category (S/I/R) (host strain YMC17/03/R585): R
antibiotic susceptibility S/I/R (host strain YMC17/03/R1888): R
susceptibility category (S/I/R) (host strain YMC17/03/R1888): R
antibiotic susceptibility S/I/R (host strain YMC17/03/R3279): R
susceptibility category (S/I/R) (host strain YMC17/03/R3279): R
antibiotic susceptibility S/I/R (host strain YMC17/03/R4077): R
susceptibility category (S/I/R) (host strain YMC17/03/R4077): R
antibiotic susceptibility S/I/R (host strain YMC17/03/R4607): R
susceptibility category (S/I/R) (host strain YMC17/03/R4607): R
antibiotic susceptibility S/I/R (host strain YMC17/04/R488): R
susceptibility category (S/I/R) (host strain YMC17/04/R488): R
antibiotic susceptibility S/I/R (host strain YMC17/04/R640): R
susceptibility category (S/I/R) (host strain YMC17/04/R640): R
antibiotic susceptibility S/I/R (host strain YMC/17/05/R1095): R
susceptibility category (S/I/R) (host strain YMC/17/05/R1095): R

Reference: patent US20240000872A1, “NOVEL BACTERIOPHAGE THAT LYSES ACINETOBACTER GENUS BACTERIA HAVING RESISTANCE TO ANTIBIOTICS” (priority 2020, published 2024)
